{
  "source": "patent US7053043B1",
  "about": "“Pharmaceutical compositions comprising synthetic peptide copolymers and methods for preventing and treating GVHD and HVGD” (Yeda Research and Development Co.Ltd., priority 1999, dated 2006)",
  "key": {"[1]": {"tested_on": "skin graft rejection", "test": "Skin graft transplantation model for HVGD", "assay_type": "in vivo, mice", "conditions": "B10.D2 → BALB/c, FK506 300 μg/day ip, 7 injections from day −2", "protocol": "Recipient mice were dorsally transplanted with circular pieces of donor skin. Mice were inspected daily. Grafts were considered rejected when no viable donor epidermis remained. The results are expressed in mean survival time (MST). P values were obtained by analysis of variance (ANOVA).\n[…] The first Cop 1 treatment on day −7 was injected sc in ICFA as a depot dose. Control mice were treated daily with PBS alone and PBS with ICFA on day −7 before transplantation.\nGrafts were inspected daily. Rejection was considered positive when no viable donor epidermis remained. […]"}, "[2]": {"tested_on": "function of transplanted thyroids", "test": "Thyroid graft assay for HVGD (125I absorption of thyroid transplanted in kidney capsule)", "assay_type": "in vivo, mice", "conditions": "B10.D2 → BALB/c, FK506 300 μg", "protocol": "In this transplantation model for HVGD, thyroid glands from donor mice were transplanted in the kidney's capsules of recipient mice. One week later the transplanted mice were injected with ^125I, and the radioactivity of each kidney (the recipient or the untransplanted kidney) was measured after 20 hours. Δcpm was calculated by subtracting the ^125I absorbance of the untransplanted kidneys from the ^125I absorbance of the recipient kidneys in the same treatment. The mean function index (MFI) for treatment was calculated by dividing the mean Δcpm for the tested (Copolymer 1) treatment by the mean Δcpm for the PBS treatment. P values were obtained by the t test. This assay indicates objectively and quantitatively not only the graft survival, but also the function (iodine absorbance) of the transplanted thyroid tissue (Isakov et al., 1979).\nThe transplanted mice were treated daily with Copolymer 1 600 μg/day (300 μg ip+300 μg sc) in PBS solution, starting 7 days before transplantation. The first Cop 1 treatment on day −7 was injected sc in ICFA as a depot dose. Control mice were treated daily with PBS alone and PBS with ICFA on day −7 before transplantation.\nTo test the effect of Copolymer 1 treatment on the function of transplanted thyroids in the B10.D2→BALB/c model, thyroid glands from donors B10.D2 were transplanted in the kidney's capsules of BALB/c mice. After one week the transplanted mice were injected with ^125I, and the radioactivity of each kidney was measured 20 hours later. cpm was calculated by subtracting the ^125I absorbance of the untransplanted kidneys from the ^125I absorbance of the recipient kidneys in the same treatment. The mean function index (MFI) for each treatment was calculated by dividing the mean ^125I absorbance of (transplanted kidney-untransplanted kidney) in the tested treatment by the mean ^125I absorbance of (transplanted kidney-untransplanted kidney) in the PBS treatment, as follows: […]"}, "[3]": {"tested_on": "T cell proliferation in MHC-disparate mixed lymphocyte cultures", "test": "Mixed lymphocyte cultures across major histocompatibility barriers, six MHC-disparate strain combinations", "assay_type": "cell-based, mice", "conditions": "10–100 μg/well, all concentrations tested", "protocol": "(§1) Responder cells for MLR reactions across major histocompatibility barriers were harvested from spleen of non-immunized mice while responder cells for MLR across minor histocompatibility barriers were harvested from mice which were preimmunized with irradiated (30 Gy) 50×10^6 stimulator spleen cells 21 days before. Responder cells (5×10^5 spleen cells per well) were tested for their proliferative response by plating with different amounts (2.5 to 10×10^5) of irradiated stimulator cells, in presence or absence of various peptide inhibitors (10–100 μg per well). Cultures were set up in 200 μl media containing 10% FCS in flat-bottom microtiter plates. After 4 days of incubation, cultures were pulsed with 1 μCi of [^3H]thymidine for an additional 16 hours. Results are represented as mean counts per minute (cpm) thymidine incorporation from triplicate cultures."}, "[4]": {"tested_on": "GVHD in B10.D2 → BALB/c recipients", "test": "Murine lethal GVHD model after bone marrow transplantation, B10.D2/nSnJ→BALB/c", "assay_type": "in vivo, mice", "conditions": "for overall incidence of GVHD: 600 μg per injection (ip + sc), Cop 1 Batch I", "protocol": "The murine GVHD model of B10.D2/nSnJ→BALB/c mice (both H-2^d) across minor histocompatibility barriers, was selected since it is similar to the MHC matched bone marrow transplantation in humans. For the induction of GVHD, 10×10^6 bone marrow and 100×10^6 spleen cells from B10.D2 mice were injected into lethally irradiated (8.0 Gy) BALB/c recipients. […] Recipient mice were 12–13 weeks at the time of transplantation.\nBased on previous studies with Cop 1 in EAE (Sela et al., 1990; Teitelbaum et al., 1971; Teitelbaum et al., 1973) and class II-binding competitor peptides in GVHD (Schlegel et al., 1994), the dosage of 600 μg per injection was selected, half of which was administered intraperitoneally (ip), whereas the other half was given subcutaneously (sc). Treatment of BALB/c recipient mice was initiated on day −1, followed by daily injections for the first five weeks starting on day 0 after transplantation. The frequency of injections was tapered to three times per week for the subsequent two weeks and to two times per week for another two weeks and then discontinued. Throughout the experiment, copolymers and controls were administered once a week with incomplete Freund's adjuvant (IFA) ip as a depot dose (Schlegel et al., 1994). Treatment was discontinued 9 weeks after transplantation.\nMice were followed up daily for 140 days after bone marrow transplantation for signs of GVHD. Disease severity was assessed by mortality, loss of body weight, and by the extent of macroscopic skin involvement scored on a cumulative scale (from min O— max 8): head 1, neck 1, back (1/3, 2/3, 3/3) 1–3, front (1/3, 2/3, 3/3) 1–3. Skin biopsies were examined as previously described (Schlegel et al., 1994).\n(ii) Effect of Copolymer 1 Treatment on the Incidence, Onset and Severity of GVHD. […] For the first five weeks after transplant mice were injected daily as outlined in Materials and Methods, followed by a tapering schedule over an additional four weeks.\n(iii) Effect of Copolymer 1 treatment on survival. […]"}, "[5]": {"tested_on": "proliferation of B10.PL (H-2u) responder cells to PL/J stimulator cells", "test": "Mixed lymphocyte reaction (MLR) across minor histocompatibility barriers", "assay_type": "cell-based, mice", "conditions": "20 μg/well, Cop 1 Batch I, 1:1 ratio of responder to stimulator cells", "protocol": "as §1\n(§2) To investigate the feasibility of inhibition of MLR by Copolymer 1, an MLR system was developed in which Copolymer 1 was tested for its ability to inhibit the proliferation of B10.PL (H-2^u) responder cells to stimulator cells of either the same (PL/J) or different (BALB/c) H-2 haplotype. For comparison, the inhibitory MBP Ac 1-11[4A], MBP 35-47, a combination of Ac 1-1[4A]+MBP 35-47, MBP 89-101 and KM-core peptides, described in Schlegel et al. (1994), were used in the MLR experiments.\n(§3) The inhibition obtained by Copolymer 1 was similar (in response to minor histocompatibility antigen) or even higher (in response to major histocompatibility antigen) than the inhibition obtained with the combination of the two synthetic peptides Ac 1-11[4A] and MBP 35-47, which specifically bind to the class II molecules I-A^u and the I-E^u, respectively. The molar efficiency of Copolymer 1 of M.W. 6000 is even higher since the molecular weight of the synthetic peptides is 4–5 fold lower."}, "[6]": {"tested_on": "proliferation of B10.PL (H-2u) responder cells to BALB/c stimulator cells", "test": "Mixed lymphocyte reaction (MLR) across major histocompatibility barriers, B10.PL vs BALB/c", "assay_type": "cell-based, mice", "conditions": "20 μg/well, Cop 1 Batch I, 1:1 ratio of responder to stimulator cells", "protocol": "as §1, §2, §3"}},
  "data": [
    {"molecule": "C=CC[C@@H]1/C=C(\\C)C[C@H](C)C[C@H](OC)[C@H]2O[C@@](O)(C(=O)C(=O)N3CCCC[C@H]3C(=O)O[C@H](/C(C)=C/[C@@H]3CC[C@@H](O)[C@H](OC)C3)[C@H](C)[C@@H](O)CC1=O)[C@H](C)C[C@@H]2OC", "note": "[FK506]", "values": [
      {"measurement": "MST ± SD (Mean Survival Time of skin graft)", "setting": "[1]", "value": "21.2 ± 4.3", "unit": "days"},
      {"measurement": "MST ± SD (Mean Survival Time of skin graft)", "setting": "[1]; listed as FK 506", "value": 21.2, "unit": "days"},
      {"measurement": "Mean 125I Absorption, Transplanted Kidney (cpm)", "setting": "[2]", "value": 3117, "unit": "cpm"},
      {"measurement": "Mean 125I Absorption, Untransplanted Kidney (cpm)", "setting": "[2]", "value": 693, "unit": "cpm"},
      {"measurement": "cpm (transplanted minus untransplanted kidney)", "setting": "[2]", "value": 2424, "unit": "cpm"},
      {"measurement": "MFI (mean function index)", "setting": "[2]; folds over PBS treatment", "value": 3.1}
    ]},
    {"molecule": "Hen egg-white lysozyme [HEL]", "values": [
      {"measurement": "inhibitory effect on the MLC", "setting": "[3]", "value": "no or only minimal inhibitory effect"},
      {"measurement": "long-term survival from lethal graft-versus-host disease", "setting": "[4]; 600 μg per injection", "value": "did not improve long-term survival"},
      {"measurement": "overall incidence of GVHD", "setting": "[4]; day 30 after transplant", "value": 100, "unit": "%"},
      {"measurement": "overall incidence of GVHD", "setting": "[4]; day 70 after transplant", "value": 100, "unit": "%"},
      {"measurement": "median onset of GVHD", "setting": "[4]; days after transplant, 600 μg per injection", "value": 22, "unit": "days"}
    ]},
    {"molecule": "KM-core: KMKMVAAHAKMKM (SEQ ID NO:3), based on the antigenic core sequence of ovalbumin 323–339 (KMKMVHAAHAKMKM)", "values": [
      {"measurement": "inhibition of MLR", "setting": "[5]", "value": "did not induce any significant effect"},
      {"measurement": "inhibition of MLR", "setting": "[6]", "value": "did not induce any significant effect"}
    ]},
    {"molecule": "MBP 89-101: peptide VHFFKNIVTPRTP (SEQ ID NO:4) of myelin basic protein", "values": [
      {"measurement": "inhibition of MLR", "setting": "[5]", "value": "did not induce any significant effect"},
      {"measurement": "inhibition of MLR", "setting": "[6]", "value": "did not induce any significant effect"}
    ]}
  ]
}
